Measurements published in PubChem BioAssay (NCI).
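Five compound concentrations were applied to cells in 96-well plates for 48 hours; endpoints were derived by simple linear interpolation of the resulting dose-response curve. GI50 = concentration required for 50% inhibition of growth. At the TGI there is no net growth.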

How the values were obtained:
Test in all cases: DTP human tumour cell line panel, 48 h
[1] = test system: SW-620 colon
[2] = test system: TK-10 renal
[3] = test system: U251 CNS
[4] = test system: UACC-62 melanoma
[5] = test system: A549 NSCLC
[6] = test system: BT-549 breast
[7] = test system: NCI-H522 lung
[8] = test system: HOP-92 NSCLC
[9] = test system: SN12C renal
[10] = test system: OVCAR-5 ovarian
[11] = test system: T-47D breast
[12] = test system: SF-295 CNS
[13] = test system: DU-145 prostate
[14] = test system: LOX IMVI melanoma
[15] = test system: A498 renal
[16] = test system: SK-OV-3 ovarian
[17] = test system: EKVX NSCLC
[18] = test system: NCI/ADR-RES ovarian
[19] = test system: KM12 colon
[20] = test system: NCI-H23 lung
[21] = test system: NCI-H460 lung
[22] = test system: MALME-3M melanoma
[23] = test system: SNB-75 CNS
[24] = test system: HCC-2998 colon
[25] = test system: PC-3 prostate
[26] = test system: HCT-15 colon
[27] = test system: MCF7 breast
[28] = test system: SNB-19 CNS
[29] = test system: IGROV1 ovarian
[30] = test system: RPMI-8226 leukemia
[31] = test system: UO-31 renal
[32] = test system: OVCAR-3 ovarian
[33] = test system: SK-MEL-5 melanoma
[34] = test system: HOP-62 NSCLC
[35] = test system: OVCAR-4 ovarian
[36] = test system: 786-0 renal
[37] = test system: SK-MEL-2 melanoma
[38] = test system: SF-268 CNS
[39] = test system: RXF 393 renal
[40] = test system: COLO 205 colon
[41] = test system: HS 578T breast
[42] = test system: UACC-257 melanoma
[43] = test system: CAKI-1 renal
[44] = test system: MDA-MB-435
[45] = test system: OVCAR-8 ovarian
[46] = test system: M14 melanoma
[47] = test system: MOLT-4 leukemia
[48] = test system: SK-MEL-28 melanoma
[49] = test system: MDA-MB-231 breast
[50] = test system: HL-60(TB) leukemia
[51] = test system: SR leukemia
[52] = test system: ACHN renal
[53] = test system: HT29 colon
[54] = test system: HCT-116 colon
[55] = test system: NCI-H226 lung
[56] = test system: CCRF-CEM leukemia
[57] = test system: K-562 leukemia
[58] = test system: SF-539 CNS

## c1ccc(CSSSCc2ccccc2)cc1
[1]
  TGI: > 51.9 µM
[2]
  TGI: > 73.9 µM
[3]
  TGI: 17.1 µM
[4]
  TGI: 16.1 µM
[5]
  TGI: > 100 µM
[6]
  TGI: 19.8 µM
[7]
  TGI: 3.33 µM
[8]
  TGI: > 92.7 µM
[9]
  TGI: 18 µM
[10]
  TGI: 41.2 µM
[11]
  TGI: > 64.5 µM
[12]
  TGI: 49.8 µM
[13]
  TGI: 4.97 µM
[14]
  TGI: 17.4 µM
[15]
  TGI: > 100 µM
[16]
  TGI: 22.9 µM
[17]
  TGI: > 100 µM
[18]
  TGI: 9.78 µM
[19]
  TGI: > 100 µM
[20]
  TGI: > 48.5 µM
[21]
  TGI: 16.2 µM
[22]
  TGI: > 100 µM
[23]
  TGI: 39.4 µM
[24]
  TGI: 17.8 µM
[25]
  TGI: > 100 µM
[26]
  TGI: > 100 µM
[27]
  TGI: > 42.1 µM
[28]
  TGI: > 100 µM
[29]
  TGI: > 90.9 µM
[30]
  TGI: 10.8 µM
[31]
  TGI: 37.1 µM
[32]
  TGI: 2.98 µM
[33]
  TGI: 15.3 µM
[34]
  TGI: 5.03 µM
[35]
  TGI: 38 µM
[36]
  TGI: 12.8 µM
[37]
  TGI: 8.36 µM
[38]
  TGI: 31.4 µM
[39]
  TGI: 14.8 µM
[40]
  TGI: 11.6 µM
[41]
  TGI: > 31 µM
[42]
  TGI: > 95.4 µM
[43]
  TGI: 22.6 µM
[44]
  TGI: 2.83 µM
[45]
  TGI: > 41.2 µM
[46]
  TGI: > 100 µM
[47]
  TGI: > 100 µM
[48]
  TGI: > 100 µM
[49]
  TGI: 23.7 µM
[50]
  TGI: 3.22 µM
[51]
  TGI: 87.3 µM
[52]
  TGI: 29.1 µM
[53]
  TGI: 19.6 µM
[54]
  TGI: 12.1 µM

## CC(=O)Nc1ccc2c(C3=C(c4cn(C)c5ccccc45)C(=O)NC3=O)cn(C)c2c1
[1]
  GI50: 0.892 µM
  TGI: > 25 µM
[2]
  GI50: > 25 µM
  TGI: > 25 µM
[3]
  GI50: 0.889 µM
  TGI: > 25 µM
[4]
  GI50: 1.3 µM
  TGI: > 25 µM
[5]
  GI50: 1.05 µM
  TGI: > 25 µM
[6]
  GI50: > 25 µM
  TGI: > 25 µM
[7]
  GI50: 0.218 µM
  TGI: 1.31 µM
[9]
  GI50: 1.25 µM
  TGI: > 25 µM
[11]
  GI50: > 25 µM
  TGI: > 25 µM
[12]
  GI50: 0.552 µM
  TGI: > 5.63 µM
[13]
  GI50: 1.01 µM
  TGI: > 24.2 µM
[14]
  GI50: 0.634 µM
  TGI: > 25 µM
[15]
  GI50: 0.386 µM
  TGI: 12.8 µM
[16]
  GI50: 1.53 µM
  TGI: > 25 µM
[55]
  GI50: > 6.26 µM
  TGI: > 25 µM
[18]
  GI50: 13.9 µM
  TGI: > 25 µM
[19]
  GI50: 0.749 µM
  TGI: > 15 µM
[20]
  GI50: 1.16 µM
  TGI: > 25 µM
[21]
  GI50: 0.881 µM
  TGI: > 25 µM
[22]
  GI50: > 25 µM
  TGI: > 25 µM
[23]
  GI50: 0.215 µM
  TGI: > 25 µM
[24]
  GI50: 0.89 µM
  TGI: > 25 µM
[25]
  GI50: 0.802 µM
  TGI: > 25 µM
[26]
  GI50: 1.24 µM
  TGI: > 25 µM
[27]
  GI50: 0.294 µM
  TGI: > 25 µM
[28]
  GI50: 5.13 µM
  TGI: > 25 µM
[29]
  GI50: 1.47 µM
  TGI: > 25 µM
[30]
  GI50: 1.11 µM
  TGI: > 25 µM
[31]
  GI50: > 9.45 µM
  TGI: > 25 µM
[32]
  GI50: 0.737 µM
  TGI: 3.1 µM
[33]
  GI50: 0.637 µM
  TGI: 3.12 µM
[34]
  GI50: 1.15 µM
  TGI: > 25 µM
[35]
  GI50: 1.28 µM
  TGI: > 25 µM
[36]
  GI50: 2.09 µM
  TGI: > 25 µM
[37]
  GI50: 5.69 µM
  TGI: > 25 µM
[38]
  GI50: 1.36 µM
  TGI: > 25 µM
[39]
  GI50: 0.512 µM
  TGI: > 7.02 µM
[40]
  GI50: 0.691 µM
  TGI: 1.72 µM
[41]
  GI50: 0.443 µM
  TGI: > 25 µM
[42]
  GI50: > 14.9 µM
  TGI: > 25 µM
[43]
  GI50: 2.08 µM
  TGI: > 25 µM
[44]
  GI50: 0.118 µM
  TGI: 0.842 µM
[45]
  GI50: 0.9 µM
  TGI: > 25 µM
[56]
  GI50: 0.0773 µM
  TGI: > 25 µM
[46]
  GI50: 0.945 µM
  TGI: > 25 µM
[47]
  GI50: 1.06 µM
  TGI: > 25 µM
[48]
  GI50: > 5.94 µM
  TGI: > 25 µM
[57]
  GI50: 0.762 µM
  TGI: > 25 µM
[49]
  GI50: 0.821 µM
  TGI: > 25 µM
[50]
  GI50: 0.921 µM
  TGI: > 25 µM
[58]
  GI50: 0.376 µM
  TGI: 1.4 µM
[51]
  GI50: 0.363 µM
  TGI: > 25 µM
[52]
  GI50: 1.42 µM
  TGI: > 25 µM
[53]
  GI50: 0.833 µM
  TGI: > 25 µM
[54]
  GI50: 0.697 µM
  TGI: > 16.6 µM
